Source: publication PMC4549706, “Rational Design of Highly Potent and Slow-Binding Cytochrome bc1 Inhibitor as Fungicide by Computational Substitution Optimization” (Scientific Reports, 2015)

Assays:
[1] = molecular target: T1, porcine succinate-cytochrome c reductase (SCR, the mixture of complex II and bc1) (Sus scrofa, UniProt P24964); experiment: SCR activity, succinate-cytochrome c system (Assay 1); assay type: biochemical; settings: for ligand efficiency (LE): from Ki against bc1 complex; for binding behaviour to bc1 complex (slow or fast binding): progress curves of SCR-catalysed reaction
T1 construct: T h e S C R f r o m p o r c i n e h e a r t; from tissue; host or cells: porcine heart
T1 sequence (P24964 whole entry, one chain of several): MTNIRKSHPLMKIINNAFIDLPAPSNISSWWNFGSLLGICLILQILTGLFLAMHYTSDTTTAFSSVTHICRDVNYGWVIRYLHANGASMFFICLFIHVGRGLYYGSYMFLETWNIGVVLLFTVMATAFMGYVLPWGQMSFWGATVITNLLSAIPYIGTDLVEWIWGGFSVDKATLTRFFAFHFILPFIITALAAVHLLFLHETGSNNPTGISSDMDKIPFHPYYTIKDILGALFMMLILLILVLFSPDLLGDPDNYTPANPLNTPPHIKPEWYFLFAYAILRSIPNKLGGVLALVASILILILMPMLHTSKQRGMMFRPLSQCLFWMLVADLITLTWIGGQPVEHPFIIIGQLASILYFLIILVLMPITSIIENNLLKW
Description: (§1) Figure 4 Slow-binding inhibition mechanism. (A,B) Effect of various concentrations of cytochrome c and compound 18 on the inhibition of SCR activity. Each reaction mixture contains 100 mM, pH 7.4), EDTA (0.3 mM), succinate (20 mM), SCR (0.1 nM), and indicated amounts of cytochrome c and compound 18. The assays were performed in the presence of (A) 18 (35 nM) and a specified amount of cytochrome c (1, 4 μM; 2, 8 μM; 3, 20 μM; and 4, 48 μM) or (B) cytochrome c (60 μM) and various concentrations of compound 18 (1, 0 nM; 2, 15 nM; 3, 20 nM; 4, 30 nM; 5, 40 nM; and 6, 50 nM). Experimental data are shown as coloured dots and theoretical values are represented as black solid lines. Insets: plots of Kobs against concentration of (A) cytochrome c and (B) compound 18. […] Each reaction mixture contains 100 mM, pH 6.5), EDTA (2 mM), lauryl maltoside (750 μM), oxidised cytochrome c (100 μM), SCR (0.05 nM), and indicated amounts of DBH2 and compound 18. Two representative sets of inhibitory assays were performed in the presence of (C) DBH2 (20 μM) and a specified amount of compound 18 (1, 20 nM; 2, 40 nM; 3, 60 nM; 4, 80 nM), or (D) DBH2 (120 μM) and a specified amount of compound 18 (1, 40 nM; 2, 80 nM; 3, 120 nM; 4, 180 nM). Insets: plots of Kobs against concentration of compound 18. (E) Plot of the apparent rate constant A against concentration of DBH2. Inset: Plot of 1/A against concentration of DBH2. (F) Plot of the apparent rate constant B against concentration of DBH2.
(§2) The porcine succinate-cytochrome c reductase (SCR, the mixture of complex II and bc1) was prepared essentially according to the previously reported method. The enzymatic activities of SCR, complex II, and bc1 complex were analyzed in respective reaction mixtures as reported previously. Kinetic analyses for the inhibition mechanism were performed as previously described. […]
(§3) inhibitory kinetics study of bc1 inhibitors 8. […]
(§4) synthesized compounds against bc1 complex were examined by SCR. As previously described 9, the combined activity of SCR can be determined by using succinate and cytochrome c as substrates (Assay 1). We also measured the activity of complex II by using succinate and 2,6-dichloroindophenol (DCIP) as substrates (Assay 2), or the activity of bc1 complex by using decylubiquinol (DBH2) and cytochrome c as substrates (Assay 3). […]
redA 10, was used to represent the enzyme concentration. The three redox reactions used in this study were summarized as follows.
Assay 1: succinate + cytochrome c3+ S C R fumarate + cytochrome c2+
Assay 2: succinate + DCIP complex II fumarate + DCIPH 2
Assay 3: DBH 2 + cytochrome c3+ bc1 complex DB + cytochrome c2+
All assays were performed at 23 °C. The enzymatic activity of SCR (Assay 1) was carried out in 1.8 mL of reaction mixture containing 100 mM PBS (pH 7.4), 0.3 mM EDTA, and indicated concentrations of succinate and oxidized cytochrome c (Sigma-Aldrich). The activity of succinate-ubiquinone reductase (complex II, Assay 2) was determined in essentially the same reaction mixture, except for the replacement of cytochrome c with DCIP (Alfa Aesar). […] DBH 2 was prepared through reduction of decylubiquinone by dithionite (Sigma-Aldrich) as previously described 11,12. The nonionic detergent LM was used to decrease the interfering non-enzymatic activity though it slightly […]

bc1 complex = molecular target: T2, bc1 complex (Sus scrofa, UniProt P24964); experiment: bc1 complex activity, DBH2-cytochrome c system (Assay 3); assay type: biochemical, porcine
T2 construct: T h e S C R f r o m p o r c i n e h e a r t; from tissue; host or cells: porcine heart
T2 sequence (P24964 whole entry, one chain of several): as above
Description: Figure 3 Inhibitory kinetics of bc1 complex. (A) Chemical structures of AZ (azoxystrobin) and its analogues, compound 1 and compound 18. These compounds have a common pharmacophore structure: methoxyacrylate (MOA). […] Each reaction mixture contains phosphate buffered saline (PBS; 100 mM, pH 6.5), ethylenediaminetetraacetic acid (EDTA; 2 mM), lauryl maltoside (750 μM), oxidised cytochrome c (100 μM), SCR (0.05 nM), DBH2 (20–120 μM) and a specified amount of AZ (1, 0 nM; 2, 500 nM; 3, 1000 nM; 4, 2000 nM; 5, 3000 nM; and 6, 5000 nM). (C) Compound 1 is non-competitive with respect to cytochrome c. The reaction mixture contains 100 mM, pH 7.4), EDTA (0.3 mM), succinate (20 mM), SCR (0.1 nM), cytochrome c (1.13–15.6 μM), and a series of concentrations of compound 1 (1, 0 nM; 2, 10 nM; 3, 20 nM; 4, 40 nM; and 5, 60 nM). (D) Compound 1 is competitive with respect to DBH2. Each reaction mixture contains 100 mM, pH 6.5), EDTA (2 mM), lauryl maltoside (750 μM), oxidised cytochrome c (100 μM), SCR (0.05 nM), DBH2 (20–120 μM) and a specified amount of compound 1 (1, 0 nM; 2, 50 nM; 3, 100 nM; 4, 200 nM; 5, 300 nM; and 6, 500 nM).
as §1, §2, §3, §4
redA 10, was used to represent the enzyme concentration. The three redox reactions used in this study were summarized as follows. […]

SMILES | Ki [1] [nM] | inhibition type with respect to cytochrome c ([1]; Assay 1, varied cytochrome c) | ∆∆Gexp ([1]; Table S1, experimental binding free energy change vs compound 1) [kcal/mol] | ΔΔGexp ([1]; experimental binding free energy change relative to compound 1) [kcal/mol] | ligand efficiency (LE) [1] | binding behaviour to bc1 complex (slow or fast binding) [1] | kon ([1]; read-out: association rate constant k+0) [M⁻¹ s⁻¹] | koff ([1]; read-out: dissociation rate constant k−0) [s⁻¹] | Ki (bc1 complex) [nM] | inhibition type with respect to DBH2 (bc1 complex; Assay 3, varied DBH2) | microscopic inhibition rate constant k+0 (bc1 complex; Assay 3, varied DBH2) [s⁻¹ nM⁻¹] | microscopic inhibition rate constant k−0 (bc1 complex; Assay 3, varied DBH2) [s⁻¹]
COC=C(C(=O)OC)c1ccccc1CSc1nc2cc(OC)ccc2s1 [Compound 18] | 4.1 ± 0.5 | non-competitive | -1.20 | -1.20 | 0.45 kcal mol^−1 per non-H atom | slow-binding | 660000 ± 10000 | 0.00271 ± 0.00031 | 13.4 ± 0.6 | competitive inhibitor | 0.00038 ± 0.00001 | 0.00509 ± 0.00009
CO/C=C(/C(=O)OC)c1ccccc1Oc1cc(Oc2ccccc2C#N)ncn1 [AZ, Azoxystrobin, reference compound] |  |  |  |  | 0.3 kcal mol^−1 per non-H atom | fast-binding |  |  | 395 ± 19.6 | competitive inhibitor |  | 
